Measurements reported in patent publication US20100216876A1, “ANTIDIARRHETIC COMPOSITION, PRODUCT CONTAINING THE SAME AND METHOD OF PREVENTING DIAHHREA” (priority 2007, published 2010).

Tested on: intestinal Cl− secretion
Assay: Short-circuit current (Isc) measurement of cecum mucosa sample in Ussing chamber after forskolin
Assay type: cell-based, mouse
Protocol: A sample of large-intestinal mucosa was prepared in the following manner. A mouse was killed by cervical vertebra dislocation. After abdominal incision, the cecum was excised by cutting the boundary parts of the cecum with the small intestine and the large intestine. The cecum was cut open with scissors into a sheet. In order to completely remove the contents of the cecum, the cecum was pinched with tweezers and washed with a buffered solution. Then, a substitution fluid was placed in a petri dish covered with rubber, and the cecum was attached thereon with the serosa side up. Under conditions in which the buffered solution-in the petri dish was always aerated with 95% O2/5% CO2, the muscle layer was peeled using tweezers, and a sample composed of mucosa and submucosa was produced. The sample was divided into four pieces for the experiment.
Electrical analysis was carried out using this sample. FIG. 1 is a diagram showing an embodiment of measurement of short-circuit current (Isc) in Ussing chamber. The mucosa sample was placed between two Ussing-type chambers (window area: 0.2 cm^2) containing 5 ml of buffered solution. For the measurement of the electrical potential difference, a pair of calomel electrodes was connected to each chamber through a 1MKCl/2% agar salt bridge. For passing current, Ag/AgGl electrodes connected through a 1MNaCl/2% agar salt bridge were mounted. These electrodes were connected to a voltage clamp apparatus, and the short-circuit current (Isc) was measured. As for Isc, the current flowing from the mucosa side to the serosa side was positive.
The solutions to be administered were prepared as stock solutions so that the concentration of each solution was 1,000 times higher than the desired final concentration.

[1] = 20 μM on the serosa side after forskolin
[2] = 50 μM on the serosa side after forskolin

| SMILES | Isc decrease [1] | Isc decrease [2] | action on Isc compared with menthol [1] | dose dependence of the Isc inhibitory effect (serosa side after forskolin) | Isc decrease (150 μM on the serosa side after forskolin) |
| --- | --- | --- | --- | --- | --- |
| CC(C)[C@@H]1CC[C@@H](C)C[C@H]1OCCCO | about 50 μA/cm^2 | about 70 μA/cm^2 |  |  |  |
| CC(C)[C@@H]1CC[C@@H](C)C[C@H]1OCC(C)(O)CO (stereo partly drawn) [2-methyl-3-(l-menthoxy)propane-1,2-diol] | about 100 μA/cm^2 |  | almost equal to the administration of 500 μM of menthol | dose dependence was observed at doses up to 50 μM |  |
| CC(C)[C@@H]1CC[C@@H](C)C[C@H]1OCCO [2-(l-menthoxy)ethanol] | about 10 μA/cm^2 |  |  |  | about 70 μA/cm^2 |
| CC1CCC(C(C)C)C(OCC(O)CO)C1 (stereo not drawn) [3-(l-menthoxy)propane-1,2-diol] | about 50 μA/cm^2 | about 70 μA/cm^2 |  |  |  |
